In patent publication EP0751768B1, “ANTI-VIRAL AND ANTI-CANCER AGENT” (Radopath Pharmaceuticals International Limited, priority 1994, dated 1995):
Where two headings read alike, the source gives them in different places.

How the values were obtained:
[1] = Anti-tumour activity against M5076 solid tumour (tumour weight inhibition); format: in vivo, murine; conditions: mouse, in vivo; ip, per day, in corn oil; M5076 study; read-out: Maximum tolerated dose
Method: (§1) The in vivo anti-tumour responses of the compound according to the invention were assessed against the ascitic tumours, MAC15A murine colon adenocarcinoma and various solid tumour models. The MAC15A ascites tumour cells were transplanted into male NMR1 mice by ip innoculation at a cell density of 1 x 10^5 cells in 200µl buffer (Table I). The solid tumour models included the MAC13 and MAC16 murine colon adenocarcinomas, the B16 F1 murine melanoma and the M5076 reticulum cell sarcoma.
(§2) Treatment commenced 3 days after ip transplant or, in the case of solid tumours such as MAC13 and MAC16, treatment commenced when average tumour volumes reached 40mm^3.
(§3) The animals were located in both cases into groups of 5 to 8 animals.
(§4) The animals were sacrificed after 12 days or when tumours ulcerated, tumour volume exceeded 1000mm^3 or loss of body weight exceeded 50%.
(§5) Except where otherwise stated, the compound used was dissolved in DMSO and diluted in sterile distilled water, at appropriate concentrations before administration in a solvent volume of 200µl. Anti-tumour responses were obtained by comparing the median survival times or tumour growth inhibition against solvent controls.
(§6) % Tumour Weight Inhibition:-

[2] = test system: M5076-reticulum cell sarcoma; test: as above; format: in vivo, murine; conditions: for % Tumour Weight Inhibition: days 1,2,3,4,5,6,7,8,9, 16 days after im transplant, corn oil
Method: as §1, §2, §3, §4, §5, §6

HIV-I IIIB = test: Acute infection assay, HIV core antigen ELISA (HIV-I IIIB); format: cell-based
HIV-1 infection = test: Pilot study of C17 in patients with HIV-1 infection and HIV-related Kaposi's sarcoma; format: in vivo, humans; set-up: CD4 ABS / CD8 ABS: unit not given here
in vivo [3] = conditions: mouse, iv
in vitro = conditions: CC50 (Toxicity)
B16 murine melanoma = test: Anti-tumour activity of C17 against B16 melanoma (tumour weight inhibition); format: in vivo, female C57/black mice
[4] = mice, preliminary data
[5] = In vitro anti-tumour activity; format: cell-based; conditions: compound appears to require activation in the liver
[6] = rats, preliminary data
in vivo [7] = conditions: rat, iv
[8] = day 7, MTD by 5 consecutive daily intravenous injections

COC(=O)c1cc([N+](=O)[O-])c(Cl)c([N+](=O)[O-])c1Cl [C3, 2,4-dichloro-3,5-dinitrobenzoic acid methyl ester]
CC50 (uninfected cells): 7 µM
MTD [1]: 1 mg/kg
anti-tumour activity (in words) [2]: without anti-tumour activity
% Tumour Weight Inhibition ([2]; 0.25 mg/kg per day ip): 42%
% Tumour Weight Inhibition ([2]; 0.5 mg/kg per day ip): 39%
% Tumour Weight Inhibition ([2]; 1.0 mg/kg per day ip): 41%
increase in toxicity ([2]; relative to 2,4-dichloro-3,5-dinitrobenzoic acid): 10 fold
SI (Selectivity Index) (HIV-I IIIB): 23

O=C(O)c1cc([N+](=O)[O-])ccc1Cl [C17, 2-chloro-5-nitrobenzoic acid]
CD4 ABS (HIV-1 infection; Patient 1, After (day 20), Before (day 1): 0.399, 10mg/kg body weight/day im 5 days weekly): 0.760
CD8 ABS (HIV-1 infection; Patient 1, After (day 20), Before (day 1): 0.567, 10mg/kg body weight/day im 5 days weekly): 0.840
CD4/CD8 (HIV-1 infection; Patient 1, After (day 20), Before (day 1): 0.70, 10mg/kg body weight/day im 5 days weekly): 0.90
Lymphocytes (HIV-1 infection; Patient 1, After (day 20), Before (day 1): 2.1, 10mg/kg body weight/day im 5 days weekly): 2.0 x 10^3mm^-3
CD4 % (HIV-1 infection; Patient 1, After (day 20), Before (day 1): 19, 10mg/kg body weight/day im 5 days weekly): 38%
CD4 ABS (HIV-1 infection; Patient 2, After (day 14), Before (day 1): 0.360, 10mg/kg body weight/day im 5 days weekly): 0.513
CD4/CD8 (HIV-1 infection; Patient 2, After (day 14), Before (day 1): 0.38, 10mg/kg body weight/day im 5 days weekly): 0.59
CD8 ABS (HIV-1 infection; Patient 2, After (day 14), Before (day 1): 0.940, 10mg/kg body weight/day im 5 days weekly): 0.874
Lymphocytes (HIV-1 infection; Patient 2, After (day 14), Before (day 1): 2.0, 10mg/kg body weight/day im 5 days weekly): 1.9 x 10^3mm^-3
CD4 % (HIV-1 infection; Patient 2, After (day 14), Before (day 1): 18, 10mg/kg body weight/day im 5 days weekly): 27%
CD4 ABS (HIV-1 infection; Patient 3, After (day 20), Before (day 1): 0.072, 10mg/kg body weight/day im 5 days weekly): 0.187
CD8 ABS (HIV-1 infection; Patient 3, After (day 20), Before (day 1): 0.270, 10mg/kg body weight/day im 5 days weekly): 0.682
CD4/CD8 (HIV-1 infection; Patient 3, After (day 20), Before (day 1): 0.27, 10mg/kg body weight/day im 5 days weekly): 0.27
Lymphocytes (HIV-1 infection; Patient 3, After (day 20), Before (day 1): 0.9, 10mg/kg body weight/day im 5 days weekly): 1.1 x 10^3mm^-3
CD4 % (HIV-1 infection; Patient 3, After (day 20), Before (day 1): 8, 10mg/kg body weight/day im 5 days weekly): 17%
CD4/CD8 (HIV-1 infection; Patient 4, After (day 14), Before (day 1): 0.08, 10mg/kg body weight/day im 5 days weekly): 0.35
CD4 ABS (HIV-1 infection; Patient 4, After (day 14), Before (day 1): 0.108, 10mg/kg body weight/day im 5 days weekly): 0.440
CD8 ABS (HIV-1 infection; Patient 4, After (day 14), Before (day 1): 1.350, 10mg/kg body weight/day im 5 days weekly): 1.260
Lymphocytes (HIV-1 infection; Patient 4, After (day 14), Before (day 1): 1.8, 10mg/kg body weight/day im 5 days weekly): 2.0 x 10^3mm^-3
CD4 % (HIV-1 infection; Patient 4, After (day 14), Before (day 1): 6, 10mg/kg body weight/day im 5 days weekly): 22%
CD4/CD8 (HIV-1 infection; Patient 5, After (day 21), Before (day 1): 0.56, 10mg/kg body weight/day im 5 days weekly): 0.66
CD4 ABS (HIV-1 infection; Patient 5, After (day 21), Before (day 1): 0.812, 10mg/kg body weight/day im 5 days weekly): 1.023
CD8 ABS (HIV-1 infection; Patient 5, After (day 21), Before (day 1): 1.456, 10mg/kg body weight/day im 5 days weekly): 1.550
Lymphocytes (HIV-1 infection; Patient 5, After (day 21), Before (day 1): 2.8, 10mg/kg body weight/day im 5 days weekly): 3.1 x 10^3mm^-3
CD4 % (HIV-1 infection; Patient 5, After (day 21), Before (day 1): 29, 10mg/kg body weight/day im 5 days weekly): 33%
CD4/CD8 (HIV-1 infection; Patient 6 (AIDS-related Kaposi's sarcoma), After (day 34), Before (day 1): 0.31, 10mg/kg body weight/day im 5 days weekly): 0.47
CD4 ABS (HIV-1 infection; Patient 6 (AIDS-related Kaposi's sarcoma), After (day 34), Before (day 1): 0.378, 10mg/kg body weight/day im 5 days weekly): 0.437
CD8 ABS (HIV-1 infection; Patient 6 (AIDS-related Kaposi's sarcoma), After (day 34), Before (day 1): 1.218, 10mg/kg body weight/day im 5 days weekly): 0.931
Lymphocytes (HIV-1 infection; Patient 6 (AIDS-related Kaposi's sarcoma), After (day 34), Before (day 1): 2.1, 10mg/kg body weight/day im 5 days weekly): 1.9 x 10^3mm^-3
CD4 % (HIV-1 infection; Patient 6 (AIDS-related Kaposi's sarcoma), After (day 34), Before (day 1): 18, 10mg/kg body weight/day im 5 days weekly): 23%
sarcoma lesions (in words) (HIV-1 infection; Patient 6, AIDS-related Kaposi's sarcoma): disappeared
CD4 counts (in words) (HIV-1 infection; all 6 patients, about 2 weeks after the beginning of the therapy, 10mg/kg body weight/day im 5 days weekly): showed an increase
patient general condition (in words) (HIV-1 infection; including weight gain and a marked decrease in opportunistic infections and diarrhea): clinical improvements
MTD at 5 days (in vivo [3]): 950 mg/kg/day
CC50 (in vitro): > 1000 µM
% Tumour Weight Inhibition (B16 murine melanoma; 700 mg/kg per day ip, days 1,2,3,4,5,6, 12 days after sc transplant, 6 animals per group): 62%
anti-tumour activity in vivo (in words) (B16 murine melanoma; refers to Table 6): considerable anti-tumour activity
red blood cell count, haemoglobin concentration, macrophage count, white blood cell count (WBC), lymphocyte count and haematocrit (HTC) [4, 8]: increases
red blood cell count, haemoglobin concentration, macrophage count, white blood cell count (WBC), lymphocyte count and haematocrit (HTC) ([4]; day 14): returned to normal
anti-tumour activity in vitro (in words) [5]: could not be supported in vitro
red blood cell count, haemoglobin concentration, macrophage count, white blood cell count (WBC), lymphocyte count and haematocrit (HTC) [6, 8]: increases
red blood cell count, haemoglobin concentration, macrophage count, white blood cell count (WBC), lymphocyte count and haematocrit (HTC) ([6]; day 14): returned to normal
MTD at 5 days (in vivo [7]): 900 mg/kg/day
